Assay results published in patent publication US8030359B2, “Polymer formulations of CETP inhibitors” (Merck Sharp & Dohme Corp., priority 2006, dated 2011).
Read-outs that look alike come from different tables or passages of the source.

What was measured:
[1] = Pharmacokinetics (bioavailability) of formulations dosed to fasted Rhesus monkeys; type: in vivo; details: rhesus monkey, blood, 3 fasted Rhesus monkeys
Experimental: Examples of preparations of pharmaceutical formulations are provided below. Bioavailability is determined in vivo by dosing trial formulations and/or other formulations of the active pharmaceutical ingredient (API) to Rhesus monkeys (normally three monkeys per trial) at a dose of 1 mg/kg of the API and then measuring the amount of API in the serum or blood as a function of time. Comparisons are made with other formulations containing the same amount and same concentration of the API, such as a solid formulation with conventional excipients or a liquid filled gelatin capsule containing equal parts by weight of Tween 80 and Cremophor EL and varying amounts of the API. The API is any compound of Formula I to Ij, and most often is Compound H.
A formulation as described above comprised of 8.8% (w/w) Compound II, 35.2% HPMCAS-LF, 25.75% lactose monohydrate, 25.75% microcrystalline cellulose (Avicel PH 102), 3% croscarmellose sodium, 0.5% colloidal silicon dioxide, and 1% magnesium stearate was transferred to capsules (568 mg fill weight), with each capsule containing […] of Compound H. The pharmacokinetic profile of this composition was tested in a panel of 3 fasted Rhesus monkeys with a single dose of 1 mg/kg.
For comparison, a formulation containing Compound II without the polymer was made and tested, as follows. The non-polymer formulation contained 5% of Compound II, 5% SDS surfactant, 1.5% HPC-EXF, 1% croscarmellose sodium, and 87.5% lactose, and was prepared by wet granulation and used in a dry-filled capsule. The pharmacokinetic profile of this composition was measured by administering a single 1 mg/kg dose to a panel of 3 fasted Rhesus monkeys and then measuring the amount of Compound II in the blood of the monkeys for a period of at least 24 hours. […] The pharmacokinetics are not as good for the “conventional” formulation as for the polymer formulations, even though the “conventional” formulation used as a control included a surfactant.
The last 3 rows summarize pharmacokinetic data obtained by administering a single dose of the formulation at a dose of 1 mg/kg to panels of 3 fasted Rhesus monkeys and measuring the concentration of Compound II in the blood for a period of at least 24 hours. The compositions can be varied more broadly to obtain desired properties, as summarized after the table.

[2] = some patients who were taking torcetrapib; cited from earlier work
[3] = Phase III clinical trials, long-term outcomes study, group taking the drug compared with the control group; cited from earlier work
[4] = po, 1 mg/kg, HME tablet formulation with 8% Compound II, 28% copovidone, 4% Vitamin E TPGS, single dose 1 mg/kg
[5] = po, 1 mg/kg, HME tablet formulation with 10% Compound II, 35% copovidone, 5% Vitamin E TPGS, single dose 1 mg/kg
[6] = po, 1 mg/kg, HME tablet formulation with 12% Compound II, 42% copovidone, 6% Vitamin E TPGS, single dose 1 mg/kg
[7] = po, 1 mg/kg, spray dried polymer formulation in capsules (8.8% Compound II, 35.2% HPMCAS-LF), single dose 1 mg/kg, 24 hours
[8] = oral, non-polymer "conventional" control formulation (5% Compound II, 5% SDS, 1.5% HPC-EXF, 1% croscarmellose sodium, 87.5% lactose), wet granulation, dry-filled capsule, single 1 mg/kg dose

Structure (SMILES)	Cmax [1, 4]	Tmax [1, 4]	AUC(0-t) ([1]; po, 1 mg/kg, HME tablet formulation with 8% Compound II, 28% copovidone, 4% Vitamin E TPGS, single dose 1 mg/kg, read-out: AUC (0-24 hrs))	Cmax [1, 5]	Tmax [1, 5]	AUC(0-t) ([1]; po, 1 mg/kg, HME tablet formulation with 10% Compound II, 35% copovidone, 5% Vitamin E TPGS, single dose 1 mg/kg, read-out: AUC (0-24 hrs))	Cmax [1, 6]	Tmax [1, 6]	AUC(0-t) ([1]; po, 1 mg/kg, HME tablet formulation with 12% Compound II, 42% copovidone, 6% Vitamin E TPGS, single dose 1 mg/kg, read-out: AUC (0-24 hrs))	Cmax [1, 7]	Tmax [1, 7]	AUC(0-t) ([1]; po, 1 mg/kg, spray dried polymer formulation in capsules (8.8% Compound II, 35.2% HPMCAS-LF), single dose 1 mg/kg, 24 hours, read-out: AUC0-24)	Cmax [1, 8]	Tmax [1, 8]	effect on blood pressure [2]	mortality versus control group [3]
COc1cc(F)c(C(C)C)cc1-c1ccc(C(F)(F)F)cc1CN1C(=O)O[C@H](c2cc(C(F)(F)F)cc(C(F)(F)F)c2)[C@@H]1C [Compound II, (4S,5R)-5-[3,5-bis(trifluoromethyl)phenyl]-3-{[4′-fluoro-5′-isopropyl-2′-methoxy-4-(trifluoromethyl)biphenyl-2-yl]methyl}-4-methyl-1,3-oxazolidin-2-one]	100 ± 10 nM	4 ± 2 h	1.73 ± 0.28 µM·h	100 ± 10 nM	5.3 ± 2 h	1.62 ± 0.27 µM·h	130 ± 10 nM	6.7 ± 1.2 h	2.29 ± 0.21 µM·h	120 ± 80 nM	6.7 ± 2.3 h	1.99 ± 1.1 µM·h	40 ± 30 nM	18.7 ± 9.2 h		
CCOC(=O)N1c2ccc(C(F)(F)F)cc2[C@@H](N(Cc2cc(C(F)(F)F)cc(C(F)(F)F)c2)C(=O)OC)C[C@H]1CC [torcetrapib]															increase blood pressure	increase in mortality
